# Test results: the supplement of paper PMC10307832
# What was measured:
# Test in all cases: relative viability (nuclei count vs DMSO), 5 days (fraction); higher = more cells survive
# MLN4924 + Alpelisib = compound: NS(=O)(=O)OC[C@@H]1C[C@@H](n2ccc3c(N[C@H]4CCc5ccccc54)ncnc32)C[C@@H]1O [MLN4924] + Cc1nc(NC(=O)N2CCC[C@H]2C(N)=O)sc1-c1ccnc(C(C)(C)C(F)(F)F)c1 [Alpelisib] (partner 2 µM)
# Procedure, shortened: (§1)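 Five library-drug doses in √10 steps were combined with a fixed anchor-drug dose, or a single drug was given alone, by pin tool to lung cancer cell lines in 1536-well plates the day after seeding. Nuclei were stained and counted after 5 days. Relative viability is the nuclei count in treated wells over that in vehicle wells, taken as the median of duplicate plates.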
# MLN4924 + Crizotinib = compound: NS(=O)(=O)OC[C@@H]1C[C@@H](n2ccc3c(N[C@H]4CCc5ccccc54)ncnc32)C[C@@H]1O [MLN4924] + C[C@@H](Oc1cc(-c2cnn(C3CCNCC3)c2)cnc1N)c1c(Cl)ccc(F)c1Cl [Crizotinib] (partner 1 µM)
# Procedure, shortened: as §1
# MLN4924 + Foretinib = compound: NS(=O)(=O)OC[C@@H]1C[C@@H](n2ccc3c(N[C@H]4CCc5ccccc54)ncnc32)C[C@@H]1O [MLN4924] + COc1cc2c(Oc3ccc(NC(=O)C4(C(=O)Nc5ccc(F)cc5)CC4)cc3F)ccnc2cc1OCCCN1CCOCC1 [Foretinib] (partner 0.25 µM)
# Procedure, shortened: as §1
# MLN4924 + OSI-027 = compound: NS(=O)(=O)OC[C@@H]1C[C@@H](n2ccc3c(N[C@H]4CCc5ccccc54)ncnc32)C[C@@H]1O [MLN4924] + COc1cccc2cc(-c3nc([C@H]4CC[C@H](C(=O)O)CC4)n4ncnc(N)c34)[nH]c12 [OSI-027] (partner 0.5 µM)
# Procedure, shortened: as §1
Cell Line,relative viability (MLN4924 + Alpelisib; first compound 0.04 µM),relative viability (MLN4924 + Alpelisib; first compound 0.1265 µM),relative viability (MLN4924 + Alpelisib; first compound 0.4 µM),relative viability (MLN4924 + Alpelisib; first compound 1.265 µM),relative viability (MLN4924 + Alpelisib; first compound 4 µM),relative viability (MLN4924 + Crizotinib; first compound 0.04 µM),relative viability (MLN4924 + Crizotinib; first compound 0.1265 µM),relative viability (MLN4924 + Crizotinib; first compound 0.4 µM),relative viability (MLN4924 + Crizotinib; first compound 1.265 µM),relative viability (MLN4924 + Crizotinib; first compound 4 µM),relative viability (MLN4924 + Foretinib; first compound 0.04 µM),relative viability (MLN4924 + Foretinib; first compound 0.1265 µM),relative viability (MLN4924 + Foretinib; first compound 0.4 µM),relative viability (MLN4924 + Foretinib; first compound 1.265 µM),relative viability (MLN4924 + Foretinib; first compound 4 µM),relative viability (MLN4924 + OSI-027; first compound 0.04 µM),relative viability (MLN4924 + OSI-027; first compound 0.1265 µM),relative viability (MLN4924 + OSI-027; first compound 0.4 µM),relative viability (MLN4924 + OSI-027; first compound 1.265 µM),relative viability (MLN4924 + OSI-027; first compound 4 µM)
NCI-H2009,0.987,0.791,0.299,0.151,0.114,0.859,0.544,0.242,0.0917,0.0613,1.02,0.494,0.344,0.193,0.104,0.249,0.149,0.187,0.0664,0.0797
NCI-H2023,0.731,0.528,0.224,0.0584,0.0729,0.579,0.918,0.298,0.0965,0.0683,0.987,0.719,0.406,0.0781,0.0729,0.383,0.361,0.163,0.0645,0.0536
NCI-H2085,0.921,1.01,0.94,0.743,0.416,0.702,0.83,0.662,0.676,0.35,1.04,0.855,0.809,0.655,0.401,0.852,0.746,0.635,0.512,0.307
NCI-H2087,1.13,0.815,0.381,0.178,0.136,0.696,0.802,0.411,0.224,0.139,1.13,0.669,0.419,0.107,0.0968,0.41,0.498,0.516,0.14,0.104
NCI-H2126,0.781,0.718,0.647,0.338,0.273,0.912,0.911,0.789,0.397,0.256,1.14,0.87,1.08,0.335,0.267,0.665,0.75,0.59,0.407,0.346
NCI-H2170,0.906,0.555,0.457,0.169,0.171,1.2,0.599,0.507,0.16,0.185,1.02,0.277,0.28,0.199,0.227,0.694,0.601,0.27,0.178,0.255
NCI-H2228,–,0.833,0.415,0.176,0.18,–,0.443,0.4,0.192,0.226,1.07,0.69,0.512,0.302,0.147,0.611,0.683,0.148,0.141,0.14
NCI-H2347,1.02,0.865,0.638,0.33,0.382,0.525,0.53,0.484,0.42,0.412,0.832,0.906,0.567,0.528,0.402,0.39,0.375,0.354,0.214,0.29
